From a melting point compilation (Tetko et al.; mined from patent text by program, amines drawn as free bases though some values may be those of a salt) come the findings set out here.

Each structure is given as a SMILES string.

Regarding `O=C(O)CCc1ccc(OCCc2ccccc2)cc1`, the melting point – broadly, the temperature of the solid-liquid transition – is 91 to 92 °C. For the molecule `c1ccc(-c2ccnc3ccnn23)cc1`, the melting point lay in the range of 72 to 73 °C. For `COc1ccc(-c2nc(C)n(CCC(C)(C)NCC(O)c3ccc(O)c(CO)c3)n2)cc1` (stereo not drawn) the value was 110 to 116 °C. Molecule `COCc1nnc(-c2cccnc2)n1-c1c(C)c(Cl)cc2[nH]c(=O)c(=O)[nH]c12` had a melting point of more than 300 °C. In the case of `Cc1c(Nc2c(I)cncc2C#N)ccc2[nH]ccc12`, the melting point fell in the range of 192 to 194 °C. As to `CCC(=C[N+](=O)[O-])NCc1ccc(Cl)nc1`, the melting point was in the range of 95 to 98 °C.

`CC(C)=CCN1N=C(c2ccc(F)cc2)c2cc(Cl)ccc2CS1(=O)=O` returned a melting point of 168 to 169 °C. For `Clc1ccsc1-c1nc(COc2ccc(CCCn3ccnc3)cc2)co1` the value was 69 to 70 °C; for `Cc1ccc(-c2cc(F)c(F)cc2-c2ccc(S(C)(=O)=O)cc2)cc1Cl`, 138 to 139 °C; for `CCCCN1CCC(NS(=O)(=O)c2ccc(NC(C)=O)cc2)CC1`, 174 to 175 °C. With `CO[C@]12C[C@@H](CN3CCC(O)(c4cccc(C(F)(F)F)c4)CC3)CN(C)[C@@H]1Cc1c[nH]c3cccc2c13`, the melting point was in the range of 135 to 140 °C. As for `CCOC(=O)C(SC)=C(O)C1C(C(=O)O)C1(C)C` (stereo not drawn), the melting point is 114 °C. Molecule `CC1(O)c2ccccc2-c2c1c(-n1ccnc1)nc1ccc(Br)cc21` (stereo not drawn) came in with a melting point of 175 to 180 °C. For `O=C(NC1(CO)NCC(O)C(O)C1O)c1ccccc1` (stereo not drawn) the value was 154 to 156 °C.

As to `O=C(NC1CCN(CCCc2ccccc2)CC1)C1=Cc2cnc3cccc(n23)S1`, the melting point lay in the range of 190 to 191 °C.

`COC(=O)NC1=NCC(c2cccc(OC)c2)CN1` (stereo not drawn) yielded a melting point of 218 to 221 °C.

In turn, `Nc1c(Br)cc(S(=O)(=O)C(F)(F)F)cc1[N+](=O)[O-]` came in with a melting point of 147 °C. In the case of `COc1cccc(S(=O)(=O)Nc2nccnc2OC)c1` it was 133 to 134 °C.

For `COc1ccc(CCSc2c(O)cc(-c3ccccc3)oc2=O)cc1`, the melting point is 144 to 145 °C.

As for `CNC(Cc1ccccc1NC(=O)C(C)(C)C)c1ccccc1` (stereo not drawn), the melting point lay in the range of 85 to 86 °C. In the case of `Nc1cc(OCC(O)CO)nc(N)n1` (stereo not drawn), the melting point worked out at 160 °C. The molecule `Oc1ccc2cc(-c3nc4cc(O)ccc4o3)ccc2c1` displayed a melting point of 288 to 290 °C.

`CC1(C)CC(=O)c2c(SCCO)sc(-c3ccccn3)c2C1`: the melting point fell in the range of 175 to 177 °C. In turn, `Nc1nc(C(F)(F)F)c(-c2ccncc2)cc1C(=O)O` displayed a melting point of more than 283 °C.

`NS(=O)(=O)c1cccc(C2OCCO2)c1` displayed a melting point of 145 to 147 °C. In turn, `COc1ccc2c(c1O)CC(C(=O)O)N(C(=O)N(C)c1ccccc1)C2` (racemic) returned a melting point of 235 to 255 °C.

The molecule `Cn1c(=O)c2ccccc2n(C)c1=S` displayed a melting point of 184 °C. Regarding `CNC(=O)Oc1ccc(SC)c2c1CCCC2`, the melting point lay in the range of 146 to 147 °C.

Consider `COc1cc(C(C)C)c2c(c1)S(=O)(=O)N(COc1cc(-c3ccccc3)nn1C)C2=O`, for which the melting point was in the range of 126 to 128 °C. With `COc1ccc(N2CCN(c3c(C)c(C)c4c(c3C)C(N3CCc5ccccc53)C(C)(C)O4)CC2)cc1` (stereo not drawn), the melting point fell in the range of 166 to 168 °C. As for `COC(=O)Nc1c(Br)cc(S(=O)(=O)N(C)C)cc1Br`, the melting point was in the range of 177 to 178 °C. For `O=C1c2ccccc2N2CCCN3CCN1C32` (stereo not drawn) the value was 144 to 146 °C; for `COc1cccc(-n2c(CC(c3ccccc3)c3c[nH]c4ccccc34)nc3ccccc3c2=O)c1` (stereo not drawn), 160 to 164 °C. On to `COC(=O)c1cc(-c2ccc(OC)c(Cl)c2)nn(CC2CC2)c1=O`, for which the melting point fell in the range of 101 to 104 °C. `COc1ccc2c(c1)C(N(CC(=O)O)C(=O)C(C)CSC(C)=O)CC2` (stereo not drawn) gave a melting point of 106 to 110 °C. As for `CC(C)(C)C#Cc1cc(Cl)cc2c1OC(C(F)(F)F)C(C(=O)O)=C2` (stereo not drawn), the melting point is 218 to 222 °C. Regarding `CN(C)c1nc2ccccc2n(-c2ccc(Cl)cc2)c1=O`, the melting point is 235 to 237 °C. In the case of `CCCCc1oc2ccccc2c1-c1ncc(-c2ccc3cc(OCc4ccc(C(=O)O)cc4C(=O)O)ccc3c2)o1` it was 285 to 287 °C. In the case of `COC(=O)C1CC2c3cccc4[nH]cc(c34)CC2N(C(=O)C2CC2)C1` (stereo not drawn), the melting point is 276 to 278 °C. For the molecule `CCNC1=NS(=O)(=O)c2sc(Cl)cc2N1`, the melting point lay in the range of 271 to 274 °C. Regarding `COc1ccc2ncc3c(c2c1)C(OC(C)=O)CCC3` (stereo not drawn), the melting point lay within 116 to 117 °C. For `Cc1cn(C(C)C(=O)N(C)C)nc1-c1cccc(Cl)c1` (stereo not drawn) the value was 73 to 75 °C; for `Cc1ccc(-c2cc(NCCNc3cc(-c4cccs4)[nH]n3)n[nH]2)cc1`, 148 °C; for `COc1cc(Br)c(C(=O)c2ccccc2)cc1OC`, 71 to 72 °C. For `O=C(NCCO)c1cccc(-c2cccc3nn(Cc4ccc(F)c(F)c4)cc23)c1`, the melting point lay within 116 to 117 °C.

For `COc1ccc(OCC(O)CNC(C)(C)C)c(C2=NNC(=O)CC2)c1` (stereo not drawn), the melting point lay within 127 to 128 °C. `CCc1cccc(CC)c1NC(=O)NCC(c1ccccc1)c1ccccc1`: the melting point lay in the range of 200 to 201 °C. In the case of `COc1ccc(N2N=C3c4ccccc4SCCC3CC2=O)cc1` (stereo not drawn) it was 143 to 145 °C. The molecule `O=C(O)CCc1cc(OCCCc2cn(-c3ccc(C(F)(F)F)cn3)nc2-c2ccccc2)nn1-c1ccccc1` had a melting point of 175 to 176 °C. In the case of `CCN1C(=O)C(C)(C)C(=O)N(C)c2cc(CN(CCn3ccc4oc(C)cc4c3=O)Cc3ncoc3C)ccc21` it was 129 to 130 °C; in that of `CCOC(=O)COc1cc(C(F)(F)F)c2c(=O)c(-c3ccccc3)coc2c1`, 139 to 140 °C. For `COc1ccc(C(=O)Nc2cc(NC(=O)c3ccc(O)cc3)ccc2C)cc1OC` the value was 258 to 259 °C. Turning to `CN1C(=O)CCC2(C)C1=CCC1C2CCC2(C)C(O)CCC12` (stereo not drawn), the melting point was in the range of 181 to 183 °C.

`c1ncn(Cc2ccc3c(c2)Cc2c(-c4ccsc4)n[nH]c2-3)n1`: the melting point is 252 to 257 °C. Turning to `Cc1c(Cc2cccc(C(F)(F)F)c2)oc2c(-c3cc(C(=O)NCCC#N)ccn3)cccc12`, the melting point lay in the range of 200 to 201 °C. For the molecule `COCCOC1CCN(c2ccc(NC(=O)c3cnn(-c4ccc(Cl)cc4)c3C)cc2C#N)CC1`, the melting point was in the range of 180 to 182 °C.

As to `Cc1cc(Oc2ccc(NC(=O)Nc3ccc(N(CCCl)CCCl)cc3)cc2)c2cc3c(cc2n1)OCO3`, the melting point fell in the range of 217 to 218 °C. On to `NC1=NN(/C=N/O)C(=O)C1Cc1ccccc1` (stereo not drawn), for which the melting point lay in the range of 105 to 108 °C. In the case of `CC(C)CC(C#N)NC(=O)C1CCCCC1NC(=O)OCc1ccccc1` (stereo not drawn) it was 104 to 106 °C; in that of `O=C(Nc1ccc(C(=O)N2Cc3ccccc3Cc3ccccc32)cc1)c1ccc(Cl)cc1Cl`, 212 to 215 °C.

Consider `C#CCCCCOc1cc(/C=C/C(=O)Nc2ccccc2C(=O)O)ccc1OC`, for which the melting point lay within 135 to 137 °C.

Regarding `O=[N+]([O-])c1cc2nc(O)c(O)nc2c2nccnc12`, the melting point is more than 300 °C. The molecule `Cc1nc(C(F)(F)F)ccc1NC(=NC#N)NC(NC(=O)c1ccc(Cl)cc1)C(C)(Cl)Cl` (stereo not drawn) came in with a melting point of 115 to 116 °C.
